In patent publication US8389555B2, “Medicaments” (Motac Neuroscience Limited, priority 2007, dated 2013):
Structures can show the parent of a compound that is named as a salt.

Assays:
[1] = tested on: 6-OHDA-lesioned rat model of Parkinson's disease; assay: Rotational behaviour in 6-OHDA-lesioned rat model of Parkinson's disease; format: in vivo; settings: for onset of action / short or long acting in vivo: in vivo model; for onset and persistence of activity: following oral or intra-peritoneal application, FIGS. 12, 16, 17
Experimental: Preparation of 6-OHDA-Lesioned Rat Model of Parkinson's Disease
Male Sprague-Dawley rats weighing 290-350 g were used. The rats were housed in a temperature-controlled room under a 12 hour light/dark cycle with free access to food and water. Thirty minutes prior to surgery, the animals were given the monoamine oxidase-B inhibitor pargyline (5 mg/kg i.p.;) and the noradrenaline uptake inhibitor desipramine (25 mg/kg i.p.). The rats were then placed under general anaesthesia (Flourothane) and immobilised in stereotaxic frame. Following reflection of cranial skin and periostium, a small bur-hole was made in the skull on the right side and a small puncture was made in the dura mater. Each animal then received a unilateral injection of 2.5 μl of the neurotoxin 6-hydroxydopamine hydrobromide (6-OHDA HBr; 5 mg/ml in sterile water with 0.1% ascorbic acid; i.e. 12.5 μg 6-OHDA per rat) into the right medial forebrain bundle at stereotaxic co-ordinates −2.8 mm from bregma, 2 mm lateral to the midline, and 9 mm below the skull. The 6-OHDA injection was made over a 5 minute period using a 5 μl Hamilton syringe. The rats were allowed to recover for 3 weeks following the lesion. Animals then received 0.05 mg/kg s.c. apomorphine to assess the extent of lesion. Animals displaying clear rotational behaviour directed contralateral to the lesioned side were selected for further studies.
Only lesioned animals were used in the study (as determined by apomorphine rotation).
Animals were administered a dose of the test compound at 1 mg/kg or 3 mg/kg (i.p.) and rotational behaviour was assessed for up to 4 hours following drug administration using automated rotometers. Alternatively, animals were administered a dose of the test compound at 10 mg/kg (p.o.) and rotational behaviour was assessed for up to 8 hours following drug administration using automated rotometers.
Each compound was administered to at least 5 rats.
Total net rotational activity. This parameter is calculated as the total number of 180° rotations (net contralateral) over the duration of the experiment.
Data were analysed independently for each novel compound with appropriate parametric statistics. All tests were carried out in Graphpad Prism Version 3.

[2] = target: T1, human dopamine D3 receptors (Homo sapiens, UniProt P35462); assay: Dopamine D3 receptor binding assay ([3H]spiperone, CHO cell membranes); settings: for Ki: human D3 receptors in CHO cells, 0.2 nM [3H]spiperone, mean ± SEM, read-out: Affinity Ki (D3); for Selectivity Ki(D2)/Ki(D3): ratio of Ki(D2) to Ki(D3)
T1 construct: expressed in transfected cells
Outline: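 CHO cell membranes expressing human D3 incubated with 0.2 nM [3H]spiperone in Tris-HCl pH 7.4 with 120 mM NaCl, 5 mM KCl, 2 mM CaCl2, 1 mM MgCl2 at 25° C for 120 min; nonspecific binding with 10 μM BP 897. Filtration read-out; seven concentrations in triplicate, Ki via Cheng-Prusoff.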

[3] = target: T2, recombinant human D2(short) dopamine receptor (Homo sapiens, UniProt P14416); assay: Dopamine D2S receptor binding assay ([3H]spiperone, CHO cell membranes); settings: human D2S receptors in CHO cells, 0.2 nM [3H]spiperone, mean ± SEM; read-out: Affinity Ki (D2)
T2 construct: expressed in transfected cells; host or cells: CHO-D2S cells (per Hayes et al. 1992)
Outline: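 Membranes from CHO cells expressing human D2S receptor, incubated with 0.2 nM [3H]spiperone in Tris-HCl pH 7.4 with NaCl, KCl, CaCl2, MgCl2, 120 min at 25 °C; nonspecific binding with 10 μM BP 897. Filtration and scintillation counting; seven concentrations in triplicate, Ki from IC50 by Cheng-Prusoff, mean±SEM.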

T2 sequence (P14416 1-414 isoform P14416-2): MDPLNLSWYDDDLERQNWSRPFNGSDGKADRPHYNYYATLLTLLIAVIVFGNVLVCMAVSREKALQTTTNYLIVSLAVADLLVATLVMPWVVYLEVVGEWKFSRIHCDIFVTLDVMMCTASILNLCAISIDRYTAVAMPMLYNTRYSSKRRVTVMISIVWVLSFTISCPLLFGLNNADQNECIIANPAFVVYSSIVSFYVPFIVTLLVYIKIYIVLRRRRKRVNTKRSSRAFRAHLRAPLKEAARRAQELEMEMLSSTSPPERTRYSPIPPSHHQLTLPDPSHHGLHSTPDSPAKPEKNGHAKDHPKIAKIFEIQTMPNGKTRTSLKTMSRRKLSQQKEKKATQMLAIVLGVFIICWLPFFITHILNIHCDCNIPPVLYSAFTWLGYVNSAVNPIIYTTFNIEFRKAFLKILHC
T1 sequence (P35462 whole entry): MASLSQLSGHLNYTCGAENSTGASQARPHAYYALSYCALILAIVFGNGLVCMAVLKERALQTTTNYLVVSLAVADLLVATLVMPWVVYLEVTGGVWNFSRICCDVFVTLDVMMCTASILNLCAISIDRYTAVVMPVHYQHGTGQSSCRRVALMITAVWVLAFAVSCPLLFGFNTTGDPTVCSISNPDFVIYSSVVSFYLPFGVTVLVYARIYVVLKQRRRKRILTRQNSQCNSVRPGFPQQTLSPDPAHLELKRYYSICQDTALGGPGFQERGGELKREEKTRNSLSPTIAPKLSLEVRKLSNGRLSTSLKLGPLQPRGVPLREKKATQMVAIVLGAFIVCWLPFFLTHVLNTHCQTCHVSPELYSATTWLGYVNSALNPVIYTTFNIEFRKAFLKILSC

Compound | melting point | Ki [2] | Selectivity Ki(D2)/Ki(D3) [2] | Ki [3] | other results
CCN(CCN(CC)C1CCc2ncsc2C1)C1CCc2ncsc2C1 (stereo not shown) (as salt: salt) [Compound 33, N,N′-Diethyl-N,N′-bis-(4,5,6,7-tetrahydro-benzothiazol-6-yl)-ethane-1,2-diamine] | 83 °C |  |  |  | 
CCCN(CCCN1CCN(c2cccc(Cl)c2Cl)CC1)C1CCc2ncsc2C1 (stereo not shown) (as salt: salt) [Compound 36, {3-[4-(2,3-Dichloro-phenyl)-piperazin-1-yl]-propyl}-propyl-(4,5,6,7-tetrahydro-benzothiazol-6-yl)-amine] | 110 °C |  |  |  | 
CCCN(CCCCN1CCN(c2cccc(Cl)c2Cl)CC1)C1CCc2ncsc2C1 (stereo not shown) (as salt: salt) [Compound 37, {4-[4-(2,3-Dichloro-phenyl)-piperazin-1-yl]-butyl}-propyl-(4,5,6,7-tetrahydro-benzothiazol-6-yl)-amine] | 150 °C |  |  |  | 
CCCN(CCN1CCN(C(=O)c2ccccc2)CC1)C1CCc2ncsc2C1 (stereo not shown) (as salt: salt) [Compound 38, [2-(4-Benzoyl-piperazin-1-yl)-ethyl]-propyl-(4,5,6,7-tetrahydro-benzothiazol-6-yl)-amine] | 186 °C |  |  |  | 
CCCN(CCCCNC(=O)NC1Cc2ccccc2C1)C1CCc2ncsc2C1 (stereo not shown) (as salt: salt) [Compound 60, 1-Indan-2-yl-3-{4-[propyl-(4,5,6,7-tetrahydrobenzothiazol-6-yl)amino]butyl}urea] | 93 °C |  |  |  | 
CCCN(CCCCNC(=O)N1CCN(c2ccccc2)CC1)C1CCc2ncsc2C1 (stereo not shown) (as salt: salt) [Compound 61, 4-Phenylpiperazine-1-carboxylic acid {4-[propyl-(4,5,6,7-tetrahydrobenzothiazol-6-yl)amino]butyl}amide] | 120 °C |  |  |  | 
CCCN(CCCCNC(=O)N1CC=C(c2ccccc2)CC1)C1CCc2ncsc2C1 (stereo not shown) (as salt: salt) [Compound 62, 4-Phenyl-3,6-dihydro-2H-pyridine-1-carboxylic acid {4-[propyl-(4,5,6,7-tetrahydrobenzothiazol-6-yl)amino]butyl}amide] | 115 °C |  |  |  | 
CCCN(CCCCNC(=O)N1CCC(c2ccccc2)CC1)C1CCc2ncsc2C1 (stereo not shown) (as salt: salt) [Compound 64, 4-phenyl-N-(4-(propyl-(4,5,6,7-tetrahydrobenzo [d]thiazol-6-yl)amino)butyl)piperidine-1-carboxamide] | 56 °C |  |  |  | 
CCCN(CCCCNC(=O)C12CC3CC(CC(C3)C1)C2)C1CCc2ncsc2C1 (stereo not shown) (as salt: salt) [Compound 65] | 114 °C |  |  |  | 
CCCN(CCCCC(=O)N1CCN(c2ccccc2)CC1)C1CCc2ncsc2C1 (stereo not shown) (as salt: salt) [Compound 66, 1-(4-Phenylpiperazin-1-yl)-5-(propyl-(4,5,6,7-tetrahydrobenzothiazol-6-yl)amino)pentan-1-one] | 75 °C |  |  |  | 
CCCN(CCCCC(=O)NC1Cc2ccccc2C1)C1CCc2ncsc2C1 (stereo not shown) (as salt: salt) [Compound 67, N-(2,3-dihydro-1H-inden-2-yl)-5-(propyl-(4,5,6,7-tetrahydrobenzothiazol-6-yl)amino)pentanamide] | 60 °C |  |  |  | 
CCCN(CCCCC(=O)NC12CC3CC(CC(C3)C1)C2)C1CCc2ncsc2C1 (stereo not shown) (as salt: salt) [Compound 68, N-Adamantanyl-5-(propyl-(4,5,6,7-tetrahydrobenzothiazol-6-yl)amino)pentanamide] | 145 °C |  |  |  | 
CCCN(CCOc1ccccc1)C1CCc2ncsc2C1 (stereo not shown) (as salt: salt) [Compound 69, N-(2-Phenoxyethyl)-N-propyl-4,5,6,7-tetrahydrobenzothiazol-6-amine] | 136 °C |  |  |  | 
CCCN(CCCCC(=O)Nc1ccc2ccccc2c1)C1CCc2ncsc2C1 (stereo not shown) [Compound 9, 5-[Propyl-(4,5,6,7-tetrahydro-benzothiazol-6-yl)-amino]-pentanoic acid naphthalen-2-ylamide] |  | 0.55 ± 0.19 nM | 542 | 299 ± 38 nM | onset of action [1]: fast acting; short or long acting in vivo [1]: short acting
CCCN(CCCCNC(=O)N1CCc2ccccc2C1)C1CCc2ncsc2C1 (stereo not shown) [Compound 24, 3,4-Dihydro-1H-isoquinoline-2-carboxylic acid {4-[propyl-(4,5,6,7-tetrahydro-benzothiazol-6-yl)-amino]-butyl}-amide] |  | 3.95 ± 1.17 nM | 394 | 1560 ± 464 nM | short or long acting in vivo [1]: short acting
CCCN(CCCCNC(=O)N1CCc2cc(OC)c(OC)cc2C1)C1CCc2ncsc2C1 (stereo not shown) [Compound 25, 6,7-Dimethoxy-3,4-dihydro-1H-isoquinoline-2-carboxylic acid {4-[propyl-(4,5,6,7-tetrahydro-benzothiazol-6-yl)-amino]-butyl}-amide] |  | 2.67 ± 1.32 nM | 2850 | 7610 ± 1810 nM | short or long acting in vivo [1]: short acting
CCN(CCN(CC)C1CCc2ncsc2C1)C1CCc2ncsc2C1 (stereo not shown) [Compound 33, N,N′-Diethyl-N,N′-bis-(4,5,6,7-tetrahydro-benzothiazol-6-yl)-ethane-1,2-diamine] |  | 22.7 ± 13.5 nM | 19 | 468 ± 13.5 nM | onset and persistence of activity [1]: rapid onset of activity and also have a sustained effect
CCCN(CCN1CCN(c2ccccc2OC)CC1)C1CCc2ncsc2C1 (stereo not shown) [Compound 34, {2-[4-(2-Methoxy-phenyl)-piperazin-1-yl]-ethyl}-propyl-(4,5,6,7-tetrahydro-benzothiazol-6-yl)-amine] |  | 4.5 ± 0.7 nM | 29 | 132 ± 40 nM | onset and persistence of activity [1]: rapid onset of activity and also have a sustained effect; action at increasing doses ([1]; i.p. at 1 and 3 mg/kg): substantially constant action; onset of action [1]: fast acting
CCCN(CCN1CCN(c2cccc(Cl)c2Cl)CC1)C1CCc2ncsc2C1 (stereo not shown) [Compound 35, {2-[4-(2,3 -Dichloro-phenyl)-piperazin-1-yl]-ethyl}-propyl-(4,5,6,7-tetrahydro-benzothiazol-6-yl)-amine] | 103.5 °C | 21.7 ± 10.6 nM | 2 | 61.3 ± 19.1 nM | 
CCCN(CCN1CCN(C(=O)c2cccc3ccccc23)CC1)C1CCc2ncsc2C1 (stereo not shown) [Compound 39, [2-(4-Naphthoyl-piperazin-1-yl)-ethyl]-propyl-(4,5,6,7-tetrahydro-benzothiazol-6-yl)-amine] |  | 12.9 ± 3.8 nM | 247 | 3180 ± 1730 nM | onset of action [1]: fast acting; short or long acting in vivo [1]: short acting
CCCN(Cc1ccc(C(=O)N(CCC)C2CCc3ncsc3C2)cc1)C1CCc2ncsc2C1 (stereo not shown) [Compound 42, N-Propyl-4-{[propyl-(4,5,6,7-tetrahydrobenzothiazol-6-yl)amino]methyl}-N-(4,5,6,7-tetrahydrobenzothiazol-6-yl)benzamide] | 85 °C | 631 ± 388 nM | 26 | 16700 ± 3380 nM | 
CCCN(Cc1ccc(C(=O)N2CCN(c3ccccc3)CC2)cc1)C1CCc2ncsc2C1 (stereo not shown) [Compound 43, (4-Phenylpiperazin-1-yl)-(4-{[propyl-(4,5,6,7-tetrahydrobenzothiazol-6-yl)amino]methyl}phenyl)methanone] | 70 °C | 29.4 ± 7.5 nM | 49 | 1440 ± 273 nM | 
CCCN(Cc1ccc(C(=O)NC2Cc3ccccc3C2)cc1)C1CCc2ncsc2C1 (stereo not shown) [Compound 44, N-Indan-2-yl-4-{[propyl-(4,5,6,7-tetrahydrobenzothiazol-6-yl)amino]methyl}benzamide] | 65 °C | 836 ± 211 nM | 19 | 16100 ± 8850 nM | 
CCCN(CCCCC(=O)NC1Cc2ccccc2C1)C1CCc2ncsc2C1 (stereo not shown) [Compound 67, N-(2,3-dihydro-1H-inden-2-yl)-5-(propyl-(4,5,6,7-tetrahydrobenzothiazol-6-yl)amino)pentanamide] |  | 0.9 ± 0.05 nM | 1550 | 1390 ± 304 nM | short or long acting in vivo [1]: short acting
